Tested on: Wnt reporter
Assay: Wnt reporter (Super 8X Topflash, TCF promoter) luciferase IC50 assay in STF and STF3A cells
Assay type: cell-based
Settings: for inhibition of the Wnt reporter: HEK293 cells stimulated with either exogenous (STF) or endogenous Wnt 3a (STF3a); for IC50: range over STF (exogenous Wnt3a, paracrine) and STF3A (endogenous Wnt3a, autocrine) HEK293 cells, 24 hours incubation
Description: STF and STF3A cells were cultured in DMEM, 4500 mg/L glucose supplemented with 10% fetal bovine serum, 2 mM L-glutamine, 110 mg/L sodium pyruvate and Penicillin/Streptomycin.
STF cells are HEK293 cells stably expressing the Super 8X Topflash M50 (http://www.addgene.org/12456/; the entire content of which is incorporated herein by reference) reporter. STF3A cells are HEK293 cells stably expressing both Super 8X Topflash reporter and pPGK-mWnt3A. The above cell lines are a gift from David Virshup.
L-Wnt3A cells were cultured in DMEM, 4500 mg/L glucose supplemented with 10% fetal bovine serum and 2 mM L-glutamine and 110 mg/L sodium pyruvate and Penicillin/Streptomycin. Wnt3A-Conditioned media was prepared with L-Wnt3A cells cultured according to recommended protocols from ATCC (http://www.atcc.org/products/all/CRL-2647.aspx#culturemethod).
Unless otherwise indicated, all experiments described herein that call for supplemental Wnt3a utilize Wnt3a conditioned media prepared by harvesting media from L-cells stably transfected with a Wnt3a coding construct (available from ATCC #CRL-2647). The cells are cultured in DMEM containing 10% fetal bovine serum (FBS). The medium, harvested from adherent cells cultured to about 80% confluency over 4 days, is purified through a 0.2 μm filter and stored at 4° C. over several months without an appreciable loss in activity [Willert et al. Nature 423, 448-52 (2003)].
STF and STF3A cells were seeded in 96 well plates, with 20,000 cells in 100 μL media per well. Following 16 hours incubation, 50 μL of media per well containing STF cells were replaced with the same volume of Wnt3A-Conditioned media.
iCRT3 and analogs were tested in triplicates at a concentration range of 50 μM-0.00013 μM, at 5-fold dilutions. Cells were incubated with the compounds for 24 hours.
Cell viability was measured after incubation with 100 μL of PrestoBlue® Cell Viability Reagent in DMEM (1:9) for 30 minutes. Following fluorescence measurements, media containing PrestoBlue reagents was aspirated. Cell were lysed in 60 μL of Dual-Glo® Reagent from the Dual-Glo® Luciferase Assay System. Luciferase activity was quantified with a luminometer after 10 minutes of incubation at room temperature.
Background subtracted luminescence readings (RLU) from the Dual-Glo® Luciferase assay were normalized against background subtracted fluorescence values (RFU) from the PrestoBlue® Cell Viability assay.
The RLU/RFU values were plotted using GraphPad Prism (www.graphpad.com). The curve was fitted with a three parameter curve fitting equation: Y=Min value+(Max value−Min value)/[1+10̂(X−lg IC50)].
Cell lines tested include STF, which are HEK293 cells expressing firefly luciferase under the control of the TCF promoter, and STF3A, which are the same as STF but also expresses Wnt3a constitutively. The two cell lines facilitate the testing of the compounds in the context of Wnt signaling activated in a paracrine (STF) versus autocrine (STF3A) fashion.
Day 0—Seed cells in 96-well plates (20,000 cells per well)
Day 1—Add compounds. For STF cells, half of the medium was also changed to Wnt3a conditioned medium.
Day 2—Measure PrestoBlue (cell viability) and Dual-Glo luciferase (TCF promoter activity).
The concentration range for iCRT3 was 10 μM-0.0000001 μM. All other compounds were tested at a concentration range of 10 μM-0.000026 μM.

Structure (SMILES) | inhibition of the Wnt reporter | IC50 [µM]
CCc1ccc(-c2nc(CSCC(=O)NCCc3ccc(F)cc3)c(C)o2)cc1 [II-1, 2-[2-(4-ethyl-phenyl)-5-methyl-oxazol-4-ylmethylsulfanyl]-N-[2-(4-fluoro-phenyl)-ethyl]-acetamide] | dose dependent inhibition | 2 to 8
CCc1ccc(-c2nc(CSCC(=O)NCCc3ccccc3)c(C)o2)cc1 [iCRT3, reference compound] | dose dependent inhibition | 14 to 30
CCc1ccc(-c2nc(CSCC(=O)NCCc3cccnc3)c(C)o2)cc1 [II-7] | dose dependent inhibition | 2 to 8

Source: patent US20170355686A1, “NOVEL OXAZOLE COMPOUNDS AS BETA CATENIN MODULATORS AND USES THEREOF” (NEW YORK UNIVERSITY, priority 2014, published 2017)
